According to patent US12195473B2, “KRAS mutant protein inhibitors” (JACOBIO PHARMACEUTICALS CO., LTD, priority 2019, dated 2025):
pIC50: −log10 of the molar value. Where two headings read alike, the source gives them in different places.

Assays:
HIS-KRAS (G12C) = type: biochemical; details: read-out: SOS1 catalyzed nucleotide exchange IC50
[1] = Mouse pharmacokinetic study; type: in vivo, Balb/c mouse
Method: 3. Mouse Pharmacokinetic Study
The purpose of this study was to evaluate the pharmacokinetic properties of compounds in Balb/c mouse (♀) following single dose administration. The day before administration, mice were fasted overnight and free access to water. Six mice were needed for each compound and the six mice were divided into two groups (n=3/group), group A and group B. Mice in group A were treated with a single 3 mg/kg dose of compound (iv). Mice in group B were treated with a single 10 mg/kg dose of compound (po). For each mouse in group A, blood samples were collected at pre-dose, and at the time point of 0.083, 0.25, 0.5, 1, 2, 4, 6, 8 and 24 h post-dose. For each mouse in group B, blood samples were collected at pre-dose, and at the time point of 0.25, 0.5, 1, 2, 3, 4, 6, 8 and 24 h post-dose. Blood samples were placed on ice until centrifugation to obtain plasma samples. The plasma samples were stored at −80° C. until analysis. The concentration of compound in plasma samples were determined using a LC-MS/MS method.

[2] = GDP-loaded HIS-KRAS (G12C), 1 hour pre-incubation with compound, TR-FRET

SMILES	pIC50 (HIS-KRAS (G12C); [2])	further results
C=CC(=O)N1[C@H](C)CN(c2c(C#N)c(=O)n(-c3c(C)ccnc3C(C)C)c3nc(-c4c(N)c(F)c(F)c(F)c4F)c(Cl)cc23)C[C@@H]1C [Compound 13, 4-((3S,5R)-4-acryloyl-3,5-dimethylpiperazin-1-yl)-7-(2-amino-3,4,5,6-tetrafluorophenyl)-6-chloro-1-(2-isopropyl-4-methylpyridin-3-yl)-2-oxo-1,2-dihydro-1,8-naphthyridine-3-carbonitrile]	8.18	
C=CC(=O)N1CCN(c2c(C#N)c(=O)n(-c3c(C)ccnc3C(C)C)c3nc(-c4c(N)c(Cl)c(F)c(Cl)c4F)c(Cl)cc23)CC1 [Compound 4, 4-(4-acryloylpiperazin-1-yl)-7-(2-amino-3,5-dichloro-4,6-difluorophenyl)-6-chloro-1-(2-isopropyl-4-methylpyridin-3-yl)-2-oxo-1,2-dihydro-1,8-naphthyridine-3-carbonitrile]	8.46	
C=CC(=O)N1CCN(c2c(C#N)c(=O)n(-c3c(C)ccnc3C(C)C)c3nc(-c4c(Cl)c(N)c(F)c(F)c4Cl)c(Cl)cc23)CC1 [Compound 2, 4-(4-acryloylpiperazin-1-yl)-7-(3-amino-2,6-dichloro-4,5-difluorophenyl)-6-chloro-1-(2-isopropyl-4-methylpyridin-3-yl)-2-oxo-1,2-dihydro-1,8-naphthyridine-3-carbonitrile]	8.18	
C=CC(=O)N1[C@H](C)CN(c2c(C#N)c(=O)n(-c3c(C)ccnc3C(C)C)c3nc(-c4c(F)c(N)c(F)c(F)c4F)c(Cl)cc23)C[C@@H]1C [Compound 8, 4-((3S,5R)-4-acryloyl-3,5-dimethylpiperazin-1-yl)-7-(3-amino-2,4,5,6-tetrafluorophenyl)-6-chloro-1-(2-isopropyl-4-methylpyridin-3-yl)-2-oxo-1,2-dihydro-1,8-naphthyridine-3-carbonitrile]	8.18	
C=CC(=O)N1CCN(c2c(C#N)c(=O)n(-c3c(C)ccnc3C(C)C)c3nc(-c4c(N)c(F)c(F)c(F)c4F)c(Cl)cc23)C[C@H]1C [Compound 9, 4-((R)-4-acryloyl-3-methylpiperazin-1-yl)-7-(2-amino-3,4,5,6-tetrafluorophenyl)-6-chloro-1-(2-isopropyl-4-methylpyridin-3-yl)-2-oxo-1,2-dihydro-1,8-naphthyridine-3-carbonitrile]	8.64	
C=CC(=O)N1[C@H](C)CN(c2c(C#N)c(=O)n(-c3c(C)ccnc3C(C)C)c3nc(-c4c(F)c(F)c(F)c(N)c4Cl)c(Cl)cc23)C[C@@H]1C [Compound 7, 4-((3S,5R)-4-acryloyl-3,5-dimethylpiperazin-1-yl)-7-(3-amino-2-chloro-4,5,6-trifluorophenyl)-6-chloro-1-(2-isopropyl-4-methylpyridin-3-yl)-2-oxo-1,2-dihydro-1,8-naphthyridine-3-carbonitrile]	7.83	
C=CC(=O)N1CCN(c2c(C#N)c(=O)n(-c3c(C)ccnc3C(C)C)c3nc(-c4c(F)c(F)c(F)c(N)c4Cl)c(Cl)cc23)CC1 (single isomer, unassigned) [Compound 12-1, 4-(4-acryloylpiperazin-1-yl)-7-(3-amino-2-chloro-4,5,6-trifluorophenyl)-6-chloro-1-(2-isopropyl-4-methylpyridin-3-yl)-2-oxo-1,2-dihydro-1,8-naphthyridine-3-carbonitrile]	7.80	
C=CC(=O)N1CCN(c2c(C#N)c(=O)n(-c3c(C)ccnc3C(C)C)c3nc(-c4c(N)c(F)c(F)c(F)c4F)c(Cl)cc23)C[C@H]1C [Compound 14, 4-((R)-4-acryloyl-3-methylpiperazin-1-yl)-7-(2-amino-3,4,5,6-tetrafluorophenyl)-6-chloro-1-(2-isopropyl-4-methylpyridin-3-yl)-2-oxo-1,2-dihydro-1,8-naphthyridine-3-carbonitrile]	8.45	
C=CC(=O)N1CCN(c2c(C#N)c(=O)n(-c3c(C)ccnc3C(C)C)c3nc(-c4c(F)c(F)c(F)c(N)c4Cl)c(Cl)cc23)[C@@H](C)C1 (single isomer, unassigned) [Compound 15-1]	8.16	
C=CC(=O)N1CCN(c2c(C#N)c(=O)n(-c3c(C)ccnc3C(C)C)c3nc(-c4c(N)c(F)c(F)c(F)c4F)c(Cl)cc23)[C@@H](C)C1 (single isomer, unassigned) [Compound 11-1]	7.53	
C=CC(=O)N1CCN(c2c(C#N)c(=O)n(-c3c(C)ccnc3C(C)C)c3nc(-c4c(N)cccc4F)c(Cl)cc23)CC1 [Compound A, 4-(4-acryloylpiperazin-1-yl)-7-(2-amino-6-fluorophenyl)-6-chloro-1-(2-isopropyl-4-methylpyridin-3-yl)-2-oxo-1,2-dihydro-1,8-naphthyridine-3-carbonitrile, reference compound]	8.77	
C=CC(=O)N1[C@H](C)CN(c2c(C#N)c(=O)n(-c3c(C)ccnc3C(C)C)c3nc(-c4c(N)c(F)c(F)c(F)c4F)c(Cl)cc23)C[C@@H]1C (single isomer, unassigned) [Compound 13-2]	7.94	
C=CC(=O)N1CCN(c2c(C#N)c(=O)n(-c3c(C)ccnc3C(C)C)c3nc(-c4c(F)c(F)c(F)c(N)c4Cl)c(Cl)cc23)CC1 [Compound 12, 4-(4-acryloylpiperazin-1-yl)-7-(3-amino-2-chloro-4,5,6-trifluorophenyl)-6-chloro-1-(2-isopropyl-4-methylpyridin-3-yl)-2-oxo-1,2-dihydro-1,8-naphthyridine-3-carbonitrile]		pIC50 (HIS-KRAS (G12C)): 8.41
C=CC(=O)N1CCN(c2c(C#N)c(=O)n(-c3c(C)ccnc3C(C)C)c3nc(-c4c(N)c(F)c(F)c(F)c4Cl)c(Cl)cc23)C[C@H]1C (single isomer, unassigned) [Compound 10-1]	7.36	
C=CC(=O)N1CCN(c2c(C#N)c(=O)n(-c3c(C)ccnc3C(C)C)c3nc(-c4c(F)c(F)c(F)c(N)c4Cl)c(Cl)cc23)CC1 (single isomer, unassigned) [Compound 12-2, 4-(4-acryloylpiperazin-1-yl)-7-(3-amino-2-chloro-4,5,6-trifluorophenyl)-6-chloro-1-(2-isopropyl-4-methylpyridin-3-yl)-2-oxo-1,2-dihydro-1,8-naphthyridine-3-carbonitrile]		pIC50 (HIS-KRAS (G12C)): 8.70
C=CC(=O)N1CCN(c2c(C#N)c(=O)n(-c3c(C)ccnc3C(C)C)c3nc(-c4c(N)c(F)c(F)c(F)c4F)c(Cl)cc23)[C@@H](C)C1 (single isomer, unassigned) [Compound 11-2]	8.68	
C=CC(=O)N1CCN(c2c(C#N)c(=O)n(-c3c(C)ccnc3C(C)C)c3nc(-c4c(N)c(F)c(F)c(F)c4Cl)c(Cl)cc23)C[C@H]1C (single isomer, unassigned) [Compound 10-2]	8.38	
C=CC(=O)N1[C@H](C)CN(c2c(C#N)c(=O)n(-c3c(C)ccnc3C(C)C)c3nc(-c4c(N)c(F)c(F)c(F)c4F)c(Cl)cc23)C[C@@H]1C (single isomer, unassigned) [Compound 13-1]	8.56	
C=CC(=O)N1[C@H](C)CN(c2c(C#N)c(=O)n(-c3c(C)ccnc3C(C)C)c3nc(-c4ccccc4F)c(Cl)cc23)C[C@@H]1C [Amgen 7.3, 4-((3S,5R)-4-acryloyl-3,5-dimethylpiperazin-1-yl)-6-chloro-7-(2-fluorophenyl)-1-(2-isopropyl-4-methylpyridin-3-yl)-2-oxo-1,2-dihydro-1,8-naphthyridine-3-carbonitrile, reference compound]	7.98	
C=CC(=O)N1CCN(c2c(C#N)c(=O)n(-c3c(C)ccnc3C(C)C)c3nc(-c4c(F)c(F)c(F)c(N)c4Cl)c(Cl)cc23)[C@@H](C)C1 (single isomer, unassigned) [Compound 15-2]	7.08	
C=CC(=O)N1CCN(c2c(C#N)c(=O)n(-c3c(C)ccnc3C(C)C)c3nc(-c4c(F)c(N)c(F)c(F)c4F)c(Cl)cc23)CC1 [Compound 6, 4-(4-acryloylpiperazin-1-yl)-7-(3-amino-2,4,5,6-tetrafluorophenyl)-6-chloro-1-(2-isopropyl-4-methylpyridin-3-yl)-2-oxo-1,2-dihydro-1,8-naphthyridine-3-carbonitrile]	8.82	
C=CC(=O)N1CCN(c2c(C#N)c(=O)n(-c3c(C)ccnc3C(C)C)c3nc(-c4c(N)c(Cl)c(F)c(F)c4F)c(Cl)cc23)CC1 [Compound 3, 4-(4-acryloylpiperazin-1-yl)-7-(2-amino-3-chloro-4,5,6-trifluorophenyl)-6-chloro-1-(2-isopropyl-4-methylpyridin-3-yl)-2-oxo-1,2-dihydro-1,8-naphthyridine-3-carbonitrile]	8.44	
C=CC(=O)N1CCN(c2c(C#N)c(=O)n(-c3c(C)ccnc3C(C)C)c3nc(-c4c(N)c(F)c(F)c(F)c4F)c(Cl)cc23)[C@@H](C)C1 [Compound 11, 4-((S)-4-acryloyl-2-methylpiperazin-1-yl)-7-(2-amino-3,4,5,6-tetrafluorophenyl)-6-chloro-1-(2-isopropyl-4-methylpyridin-3-yl)-2-oxo-1,2-dihydro-1,8-naphthyridine-3-carbonitrile]		Pharmacokinetic properties (in words) ([1]; mouse model, compared with Compound A, Amgen 6 and Amgen 6.3): excellent pharmacokinetic properties; clearance ([1]; plasma, Balb/c mouse (female), 3 mg/kg, iv): 7.2 mL/min/kg; Vd ([1]; plasma, Balb/c mouse (female), 3 mg/kg, iv, read-out: Vss): 1 L/kg; Cmax ([1]; plasma, Balb/c mouse (female), 10 mg/kg, po): 3340 ng/mL; AUC(0-t) ([1]; plasma, Balb/c mouse (female), 10 mg/kg, po, read-out: AUC0-24 h): 9590 ng·h/mL; bioavailability ([1]; plasma, Balb/c mouse (female), 10 mg/kg, po, read-out: Oral BA (F %)): 38%
